In PubChem BioAssay (NCI):
Where “and” joins values, the source holds several entries; their conditions need not be identical. Equal entries are not always repeated.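 Cultured in 96-well plates, cells were exposed to test compound for 48 hours across five concentrations. Abbreviation: GI50, concentration required for 50% inhibition of growth. The concentration for full growth arrest is given as TGI.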

Assays:
Experiment in all cases: NCI tumour cell line growth inhibition, 48 h
A498 renal = test system: A498 renal
A549 NSCLC = test system: A549 NSCLC
CAKI-1 renal = test system: CAKI-1 renal
DMS 114 small cell lung = test system: DMS 114 small cell lung
HCT-116 colon = test system: HCT-116 colon
HCT-15 colon = test system: HCT-15 colon
K-562 leukemia = test system: K-562 leukemia
KM20L2 colon = test system: KM20L2 colon
MALME-3M melanoma = test system: MALME-3M melanoma
OVCAR-8 ovarian = test system: OVCAR-8 ovarian

Row | SMILES | GI50 (A498 renal) | TGI (A498 renal) | GI50 (A549 NSCLC) | TGI (A549 NSCLC) | GI50 (CAKI-1 renal) | TGI (CAKI-1 renal) | TGI (DMS 114 small cell lung) | TGI (HCT-116 colon) | TGI (HCT-15 colon) | GI50 (K-562 leukemia) | TGI (K-562 leukemia) | TGI (KM20L2 colon) | TGI (MALME-3M melanoma) | TGI (OVCAR-8 ovarian) | GI50 (DMS 114 small cell lung) | GI50 (HCT-116 colon) | GI50 (KM20L2 colon) | GI50 (MALME-3M melanoma) | GI50 (OVCAR-8 ovarian)
1 | C=C1CCC2[C@@H](CCC3[C@]2(C)CCC[C@]3(C)C(=O)OC)[C@@H]1CC=O (some centres not stated) | 87.8 µM | > 100 µM | 62 µM | > 100 µM | 35.8 µM | > 100 µM | 53.2 µM | 30.7 µM | 81.2 µM | 26 µM | 77.4 µM | 62.7 µM | 87.7 µM | 49.2 µM | – | – | – | – | –
2 | COC(=O)C(C)(C)N=CN(C)C | – | > 100 µM | – | > 100 µM | – | > 100 µM | > 100 µM | > 100 µM | > 100 µM | – | > 100 µM | > 100 µM | > 100 µM | > 100 µM | – | – | – | – | –
3 | O=C(NC1CCCC1=O)c1ccccc1 (configuration not stated) | – | > 100 µM | – | > 100 µM | – | > 100 µM | > 100 µM | > 100 µM | – | – | > 100 µM | > 100 µM | > 100 µM | > 100 µM | – | – | – | – | –
4 | CNS(=O)(=O)NNS(=O)(=O)c1ccc(Cl)cc1 | – | > 100 µM | – | > 100 µM | – | > 100 µM | > 100 µM | > 100 µM | – | – | > 100 µM | > 100 µM | > 100 µM | > 100 µM | – | – | – | – | –
5 | Cc1ccc(S(=O)OC2C3CC4CC(C3)CC2C4)cc1 (configuration not stated) | – | > 100 µM | – | > 100 µM | – | > 100 µM | > 100 µM | > 100 µM | > 100 µM | – | > 100 µM | > 100 µM | > 100 µM | > 100 µM | – | – | – | – | –
6 | CN(C)c1ccc(/C=C2\C=Cc3ccccc32)cc1 | – | > 100 µM | – | > 100 µM | – | > 100 µM | 89.6 µM | > 100 µM | > 100 µM | – | > 100 µM | > 100 µM | > 100 µM | > 100 µM | – | – | – | – | –
7 | Cc1cc(N(CCC#N)CCC#N)ccc1/C=C1N=C(/C=C\c2ccccc2)N(c2ccc(Cl)cc2)C\1=O | – | > 100 µM | – | > 100 µM | – | > 100 µM | > 100 µM | > 100 µM | > 100 µM | – | > 100 µM | > 31.9 µM | > 72 µM | > 100 µM | – | – | – | – | –
8 | CN(C)CC1CCCC1=O (configuration not stated) | – | 27.3 µM | – | 49 µM | – | 0.373 µM | 2.33 µM | 2.78 µM | 2.56 µM | – | 0.549 µM | 5.32 µM | 2.57 µM | 8.94 µM | – | – | – | – | –
9 | CCCCCCN(N)C(=O)CC#N | – | > 100 µM | – | > 100 µM | – | > 100 µM | > 100 µM | > 100 µM | > 100 µM | – | > 100 µM | > 100 µM | > 100 µM | > 100 µM | – | – | – | – | –
10 | CC1CN1c1c(C(=O)/C=C/c2ccccc2)c(-c2ccccc2)nn(C)c1=O (configuration not stated) | – | 32.4 µM | – | 70.5 µM | – | 81.7 µM | 43.8 µM | 33.2 µM | 27.4 µM | – | 50.4 µM | 36.2 µM | 34.9 µM | 41 µM | – | – | – | – | –
11 | Fc1cccc(C2SCc3nc4ccccc4n32)c1F (configuration not stated) | – | > 100 µM | – | > 100 µM | – | > 100 µM | > 100 µM | > 100 µM | > 100 µM | – | > 100 µM | > 100 µM | > 100 µM | > 100 µM | – | – | – | – | –
12 | N#Cc1ccc(N=Cc2c([O-])ccc3ccccc23)cc1.[C-]#[O+].[C-]#[O+].[Ir] | 22.5 µM | 37.5 µM | 20.8 µM | 38.1 µM | 2.92 µM | 6.26 µM | 3.66 µM | 26 µM | – | 8.99 µM | 28.9 µM | 29.5 µM | 15.1 µM | 28 µM | 1.69 µM | 13.2 µM | 16 µM | 4.42 µM | 6.03 µM
13 | COc1cc2nc(NCCCCCNC(=O)c3ccco3)nc(N)c2cc1OC | – | > 100 µM | – | > 100 µM | – | > 100 µM | 40.6 µM | – | > 100 µM | – | > 100 µM | > 100 µM | 33.3 µM | > 100 µM | – | – | – | – | –
14 | O=C(O)/C(Cl)=C(\Cl)C(=O)Nc1ccc(Cl)c(Cl)c1Cl | – | 95.6 µM | – | 35.2 µM | – | 32 µM | 35.1 µM | 28.1 µM | 34.8 µM | – | 83.1 µM | 44.7 µM | 34.9 µM | – | – | – | – | – | –
15 | CCO/C=C1\N=C(c2ccccc2Br)OC1=O | – | > 100 µM | – | > 100 µM | – | > 100 µM | > 100 µM | – | > 100 µM | – | > 100 µM | > 100 µM | > 100 µM | > 100 µM | – | – | – | – | –
16 | CC(C)c1c2[nH]c3ccccc3c2c(C(C)C)c2[nH]c3ccccc3c12 | – | > 100 µM | – | > 100 µM | – | > 100 µM | > 100 µM | > 100 µM | > 100 µM | – | > 100 µM | > 100 µM | > 100 µM | > 100 µM | – | – | – | – | –
17 | CCOC(=O)C(=O)Nc1cc(Cl)ccc1Cl | – | > 100 µM | – | > 100 µM | – | > 100 µM | > 100 µM | > 100 µM | > 100 µM | – | > 100 µM | > 100 µM | > 100 µM | > 100 µM | – | – | – | – | –
18 | COC(CN1C=C(Sc2ccccc2)CC1)OC | – | > 100 µM | – | > 100 µM | – | > 100 µM | 65.4 µM | > 100 µM | > 100 µM | – | 53.7 µM | > 100 µM | > 100 µM | 86.9 µM | – | – | – | – | –
19 | C/C1=C\[C@@H](O)C(=O)/C=C/C=C\c2csc(n2)[C@@H](C)NC(=O)C[C@@]2(CC1)S(=O)SC(=O)[C@]2(C)O (some centres not stated) | – | 0.0272 µM | – | 0.713 µM and 0.368 µM | – | 0.0191 µM | 0.169 µM and 0.022 µM | 0.0259 µM | – | – | > 100 µM | 0.636 µM and 0.599 µM | 0.025 µM | 0.0624 µM and 0.0152 µM | – | 0.0045 µM | – | – | –
